{
  "source": "paper PMC11671526",
  "about": "“β-caryophyllene sensitizes hepatocellular carcinoma cells to chemotherapeutics and inhibits cell malignancy through targeting MAPK signaling pathway” (Frontiers in Pharmacology, 2024)",
  "test_system": "HepG2 cells",
  "experiment": "RNA-seq transcriptome analysis of differentially expressed genes",
  "format": "cell-based, human",
  "conditions": "BCP vs control HepG2, RNA-seq",
  "description": "The quality and concentration of RNA were examined by MOPS RNA electrophoresis and Eppendorf BioSpectrometer. The transcriptome analysis was performed by BGI-Wuhan China. The RNA-seq dataset of this study is accessible in the Gene Expression Omnibus (GEO) with an access number of GSE276099. The sequence library for each sample was prepared using the BGISEQ-500 platform with a 50-bp single-end (SE50) format. […]2.2.1) was used to align the clean reads to the reference genome and alignment of the clean reads to the reference genes was carried out using Bowtie2 (v2.4.5) ([Langmead and Salzberg, 2012]; [Kim et al., 2015]). Gene expression levels were calculated by RSEM (v1.3.1) ([Li and Dewey, 2011]). Analysis of differential gene expression was performed using edgeR in the Bioconductor software package ([Robinson et al., 2010]). Using a standard protocol, the RNA samples were also examined by reverse transcription and quantitative polymerase chain reaction (RT-qPCR). In brief, for reverse transcription, total RNA (1 μg) and gDNA wiper Mix were incubated at 42°C for 2 min. The samples were immediately incubated with a master mix containing 10 pmol/μL of poly (dT) primers at 37°C for 15 min and 85°C for 5 s. To detect the expression of specific genes by qPCR analysis, gene-specific primers (shown in Supplementary Table S1) were mixed with the ChamQ Universal SYBER qPCR Master Mix and the reaction was conducted using the Roche Lightcycler 480. The GAPDH value was used to normalize the results of each gene. The RNA-seq data of BCP-treated HepG2 cells were screened for DEGs. Gene symbols were turned into Enterz ID using the org.Hs.eg.db Bio-conductor R package. The cluster profiler (v4.6.2) package was used to perform the Kyoto Encyclopedia of Genes and Genomes (KEGG) and Gene Ontology (GO) enrichment analyses ([Wu et al., 2021]). Following the Transcript per million (TPM) data of the dataset, the line chart, and heatmap were plotted using ggplot2 and pheatmap R packages, respectively.",
  "data": [
    {"smiles": "C=C1CC/C=C(\\C)CC[C@@H]2[C@@H]1CC2(C)C", "note": "[BCP, β-caryophyllene]", "values": [
      {"measurement": "ODAD2 change", "result": "Up"},
      {"measurement": "ODAD2 logFC", "result": 0.6018},
      {"measurement": "PADI1 change", "result": "Down"},
      {"measurement": "PADI1 logFC", "result": -0.911},
      {"measurement": "PAN2 change", "result": "Up"},
      {"measurement": "PAN2 logFC", "result": 0.6394},
      {"measurement": "PAPLN change", "result": "Up"},
      {"measurement": "PAPLN logFC", "result": 0.648},
      {"measurement": "PARP10 change", "result": "Up"},
      {"measurement": "PARP10 logFC", "result": 0.961},
      {"measurement": "PDZK1IP1 change", "result": "Up"},
      {"measurement": "PDZK1IP1 logFC", "result": 0.6396},
      {"measurement": "PERM1 change", "result": "Up"},
      {"measurement": "PERM1 logFC", "result": 0.9379},
      {"measurement": "PGF change", "result": "Down"},
      {"measurement": "PGF logFC", "result": -1.184},
      {"measurement": "PGGHG change", "result": "Up"},
      {"measurement": "PGGHG logFC", "result": 0.7209},
      {"measurement": "PID1 change", "result": "Down"},
      {"measurement": "PID1 logFC", "result": -0.6654},
      {"measurement": "PLCD4 change", "result": "Down"},
      {"measurement": "PLCD4 logFC", "result": -1.595},
      {"measurement": "PLCH1 change", "result": "Up"},
      {"measurement": "PLCH1 logFC", "result": 1.418},
      {"measurement": "PLEKHF1 change", "result": "Up"},
      {"measurement": "PLEKHF1 logFC", "result": 0.8594},
      {"measurement": "PLEKHN1 change", "result": "Up"},
      {"measurement": "PLEKHN1 logFC", "result": 0.6105},
      {"measurement": "POU2F3 change", "result": "Down"},
      {"measurement": "POU2F3 logFC", "result": -1.5108},
      {"measurement": "PRDM12 change", "result": "Down"},
      {"measurement": "PRDM12 logFC", "result": -1.2196},
      {"measurement": "PRIMPOL change", "result": "Up"},
      {"measurement": "PRIMPOL logFC", "result": 0.639},
      {"measurement": "PROB1 change", "result": "Down"},
      {"measurement": "PROB1 logFC", "result": -0.6611},
      {"measurement": "PRSS56 change", "result": "Up"},
      {"measurement": "PRSS56 logFC", "result": 0.9346},
      {"measurement": "PTP4A3 change", "result": "Up"},
      {"measurement": "PTP4A3 logFC", "result": 0.9798},
      {"measurement": "PTPRR change", "result": "Up"},
      {"measurement": "PTPRR logFC", "result": 1.308},
      {"measurement": "RAET1E change", "result": "Down"},
      {"measurement": "RAET1E logFC", "result": -0.794},
      {"measurement": "RAET1L change", "result": "Down"},
      {"measurement": "RAET1L logFC", "result": -0.9044},
      {"measurement": "RASD2 change", "result": "Down"},
      {"measurement": "RASD2 logFC", "result": -0.5906},
      {"measurement": "RASL11A change", "result": "Down"},
      {"measurement": "RASL11A logFC", "result": -0.8207},
      {"measurement": "RHBDL3 change", "result": "Down"},
      {"measurement": "RHBDL3 logFC", "result": -0.6105},
      {"measurement": "S1PR1 change", "result": "Down"},
      {"measurement": "S1PR1 logFC", "result": -1.034},
      {"measurement": "SH2D5 change", "result": "Up"},
      {"measurement": "SH2D5 logFC", "result": 0.5827},
      {"measurement": "SHC3 change", "result": "Down"},
      {"measurement": "SHC3 logFC", "result": -0.7485},
      {"measurement": "SLC4A11 change", "result": "Down"},
      {"measurement": "SLC4A11 logFC", "result": -0.655},
      {"measurement": "SLC6A12 change", "result": "Down"},
      {"measurement": "SLC6A12 logFC", "result": -3.144},
      {"measurement": "SLC6A16 change", "result": "Down"},
      {"measurement": "SLC6A16 logFC", "result": -0.7923},
      {"measurement": "SLC12A3 change", "result": "Down"},
      {"measurement": "SLC12A3 logFC", "result": -0.7354},
      {"measurement": "SLC25A41 change", "result": "Down"},
      {"measurement": "SLC25A41 logFC", "result": -0.9215},
      {"measurement": "SMC1B change", "result": "Up"},
      {"measurement": "SMC1B logFC", "result": 1.162},
      {"measurement": "SMPDL3A change", "result": "Down"},
      {"measurement": "SMPDL3A logFC", "result": -0.7314},
      {"measurement": "SORBS1 change", "result": "Up"},
      {"measurement": "SORBS1 logFC", "result": 0.6679},
      {"measurement": "SP6 change", "result": "Down"},
      {"measurement": "SP6 logFC", "result": -0.8849},
      {"measurement": "ST3GAL5 change", "result": "Down"},
      {"measurement": "ST3GAL5 logFC", "result": -0.6552},
      {"measurement": "STAC change", "result": "Down"},
      {"measurement": "STAC logFC", "result": -0.9497},
      {"measurement": "STXBP6 change", "result": "Down"},
      {"measurement": "STXBP6 logFC", "result": -0.6612},
      {"measurement": "SYTL4 change", "result": "Down"},
      {"measurement": "SYTL4 logFC", "result": -1.384},
      {"measurement": "TCF7 change", "result": "Up"},
      {"measurement": "TCF7 logFC", "result": 0.7392},
      {"measurement": "TESPA1 change", "result": "Down"},
      {"measurement": "TESPA1 logFC", "result": -0.7534},
      {"measurement": "TEX9 change", "result": "Up"},
      {"measurement": "TEX9 logFC", "result": 0.7307},
      {"measurement": "TGFA change", "result": "Down"},
      {"measurement": "TGFA logFC", "result": -0.6404},
      {"measurement": "THRB change", "result": "Down"},
      {"measurement": "THRB logFC", "result": -0.6974},
      {"measurement": "TIAF1 change", "result": "Down"},
      {"measurement": "TIAF1 logFC", "result": -0.9875},
      {"measurement": "TLN2 change", "result": "Up"},
      {"measurement": "TLN2 logFC", "result": 0.6813},
      {"measurement": "TMEM17 change", "result": "Up"},
      {"measurement": "TMEM17 logFC", "result": 0.6031},
      {"measurement": "TMEM121 change", "result": "Down"},
      {"measurement": "TMEM121 logFC", "result": -0.7343},
      {"measurement": "TMEM158 change", "result": "Down"},
      {"measurement": "TMEM158 logFC", "result": -0.7403},
      {"measurement": "TMEM213 change", "result": "Down"},
      {"measurement": "TMEM213 logFC", "result": -1.017},
      {"measurement": "TMIE change", "result": "Up"},
      {"measurement": "TMIE logFC", "result": 1.064},
      {"measurement": "TMPPE change", "result": "Down"},
      {"measurement": "TMPPE logFC", "result": -0.812},
      {"measurement": "TNFRSF14 change", "result": "Up"},
      {"measurement": "TNFRSF14 logFC", "result": 1.214},
      {"measurement": "TOX change", "result": "Up"},
      {"measurement": "TOX logFC", "result": 0.9011},
      {"measurement": "TRABD2B change", "result": "Up"},
      {"measurement": "TRABD2B logFC", "result": 0.6053},
      {"measurement": "TSHZ2 change", "result": "Up"}
    ]}
  ]
}
